This note sets out measurements from US20040166178A1, “3-O-acetyl-11-ketoboswellic acid for relaxing the skin” (L'OREAL, priority 2003, published 2004).

In assay [1] the test system is human striated muscle cells innervated with explants of spinal cord and spinal ganglia from rat embryos. The assay can be described thus: nerve-muscle coculture model, inhibition of muscle fibre contractions. The note with it: for contraction-inhibiting effect: test identical to Example 1. Format: cell-based. How it is done: Three extracts of Boswellia serrata were tested on a nerve-muscle coculture model which makes it possible to recreate a motor arc by innovating human striated muscle cells with explants of spinal cord and of spinal ganglia from rat embryos.
Human muscle cells derived from human muscle samples from a healthy donor are seeded in 15 mm-diameter wells (24-well culture dishes). After culturing for 10 days, these cells form a monolayer and fuse. At this stage, spinal cord explants from 13-day-old rat embryos, containing the spinal ganglion, are deposited onto the culture.
The first muscle fibre contractions are observed after coculturing for one week.
A muscle fibre having regular contractions (at least 60 contractions per minute) is then selected in three different culture wells and the number of contractions is counted over 30 seconds using image analysis software. The extracts tested, diluted in ethanol, are then incubated for 60 seconds in these wells, at the concentrations C1 and C2 of 0.005% and 0.01%. At the end of the incubation, the number of contractions is again counted over 30 seconds.
The percentage of inhibited contractions is then determined.

In assay [2] the test system is calcium channels. The assay can be described thus: model of calcium flux. It counts as cell-based. The note with it: compared with beta-boswellic acid, 3-O-acetylboswellic acid and 11-ketoboswellic acid. How it is done: The four pentacyclic triterpene acids contained, according to the literature, in extract of Boswellia serrata, namely beta-boswellic acid, 3-O-acetylboswellic acid, 11-ketoboswellic acid and 3-O-acetyl-11-ketoboswellic acid, were tested in a model of calcium flux in order to evaluate their capacity for inhibiting calcium channels and therefore their ability to relax lines and smooth out expression lines.
(A change in cytosolic calcium serves as a functional read-out for many receptors and channels.)

The nature of assay [3]: anti-wrinkle activity in vivo.

`CC(=O)O[C@@H]1CC[C@@]2(C)[C@@H](CC[C@]3(C)[C@@H]2C(=O)C=C2[C@@H]4[C@@H](C)[C@H](C)CC[C@]4(C)CC[C@]23C)[C@@]1(C)C(=O)O` [3-O-acetyl-11-ketoboswellic acid]: the contraction-inhibiting effect is 74.7% in assay [1] (5 μM) and 87% in assay [1] (10 μM). The “relaxing effect (capacity for inhibiting calcium channels)” value in assay [2] was “clearly greater than that obtained for the other three acids tested”.
Consider `CN1C(=O)CN=C(c2ccccc2)c2cc(Cl)ccc21` [diazepam, reference compound], for which the muscle fibre contractions result in assay [1] (earlier demonstration by the applicant) is listed as “inhibited muscle fibre contractions”. The anti-wrinkle activity result in assay [3] is on record as “demonstrated in vivo”.
